molecular target: Dual specificity mitogen-activated protein kinase kinase 1 (Homo sapiens, UniProt Q02750); assay: Inhibition of MEK1
Sequence (Q02750 whole entry): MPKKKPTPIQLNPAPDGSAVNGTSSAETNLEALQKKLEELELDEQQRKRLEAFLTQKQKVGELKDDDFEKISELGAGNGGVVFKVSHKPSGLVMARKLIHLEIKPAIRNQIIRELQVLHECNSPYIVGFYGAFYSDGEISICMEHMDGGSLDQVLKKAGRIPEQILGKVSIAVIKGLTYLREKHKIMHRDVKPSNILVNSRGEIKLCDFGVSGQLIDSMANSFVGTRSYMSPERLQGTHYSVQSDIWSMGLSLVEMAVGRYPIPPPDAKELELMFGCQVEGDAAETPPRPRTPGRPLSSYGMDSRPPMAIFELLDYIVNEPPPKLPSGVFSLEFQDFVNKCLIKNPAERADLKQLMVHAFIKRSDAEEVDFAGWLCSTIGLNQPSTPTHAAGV

CC(Nc1snc(O)c1C#N)c1ccccc1 (configuration not stated) and N#Cc1c(O)nsc1Nc1ccccc1 cannot be ordered by IC50: greater than 5 µM for the first, 7 µM for the second.

N#Cc1c(O)nsc1NCCc1cccs1 and N#Cc1c(O)nsc1NCCc1ccccc1 cannot be ordered by IC50: greater than 5 µM for the first, greater than 5 µM for the second.

COc1cc(Nc2snc(O)c2-c2nn[nH]n2)cc(OC)c1 and COc1cccc(Nc2snc(O)c2C#N)c1 cannot be ordered by IC50: greater than 2 µM for the first, greater than 5 µM for the second.

COC(=O)c1cccc(Nc2s[nH]c(=O)c2C#N)c1 and Cc1cccc(Nc2s[nH]c(=O)c2C#N)c1 cannot be ordered by IC50: greater than 5 µM for the first, greater than 5 µM for the second.

COCCCNc1snc(O)c1C#N and CCCCNc1snc(O)c1C#N cannot be ordered by IC50: greater than 5 µM for the first, greater than 5 µM for the second.

N#Cc1ccc(Nc2s[nH]c(=O)c2C#N)cc1 and N#Cc1c(O)nsc1Nc1ccc([N+](=O)[O-])cc1 cannot be ordered by IC50: greater than 5 µM for the first, greater than 5 µM for the second.

N#Cc1c(O)nsc1Nc1ccccc1C(F)(F)F and Cc1ccccc1Nc1snc(O)c1C#N cannot be ordered by IC50: greater than 5 µM for the first, greater than 5 µM for the second.

CC(C)Nc1snc(O)c1C#N and Cc1ccc(Nc2snc(O)c2C#N)cc1 cannot be ordered by IC50: greater than 5 µM for the first, greater than 5 µM for the second.

N#Cc1c(NCC2CCCCC2)s[nH]c1=O and N#Cc1c(O)nsc1N1CCCCC1 cannot be ordered by IC50: greater than 5 µM for the first, greater than 5 µM for the second.

Cc1ccc(Nc2snc(O)c2C(=N)NN2CCCCC2)cc1 and Cc1ccc(Nc2snc(O)c2/C(N)=N/O)cc1 cannot be ordered by IC50: greater than 2 µM for the first, greater than 2 µM for the second.

N#Cc1c(O)nsc1Nc1cccnc1 and N#Cc1c(O)nsc1Nc1cccc([N+](=O)[O-])c1 cannot be ordered by IC50: greater than 5 µM for the first, greater than 5 µM for the second.

Going from N#Cc1c(O)nsc1NCCc1ccc(O)cc1 to N#Cc1c(O)nsc1Nc1ccc(Cl)cc1, the IC50 falls from greater than 5 µM to 0.41 µM. The second is the more potent here.

COc1nsc(Nc2ccccc2)c1C#N and Cn1sc(Nc2ccccc2)c(C#N)c1=O cannot be ordered by IC50: greater than 5 µM for the first, greater than 5 µM for the second.

N#Cc1c(O)nsc1Nc1ccccc1[N+](=O)[O-] and COc1ccccc1Nc1snc(O)c1C#N cannot be ordered by IC50: greater than 5 µM for the first, greater than 5 µM for the second.

N#Cc1c(O)nsc1NCCCN1CCOCC1 and COc1ccc(Nc2snc(O)c2C#N)cc1 cannot be ordered by IC50: greater than 5 µM for the first, greater than 5 µM for the second.

CC(C)c1ccc(Sc2snc(O)c2C#N)cc1 and N#Cc1c(O)nsc1Oc1ccc(Oc2ccccc2)cc1 cannot be ordered by IC50: greater than 5 µM for the first, greater than 5 µM for the second.
